Results published in US7144919B1, “Polyoxyethylene-polyoxypropylene vitamin E and process for preparation thereof” (priority 2000, dated 2006).

Assay: Anti-oxidation activity: peroxide value of linoleic acid
Conditions: sample 0.5% in linoleic acid, incubator 40° C.
Method: The novel POE-POP vitamin E of the present invention was examined for anti-oxidation activity, using linoleic acid. Readily being oxidized, linoleic acid can be used in determining the ability of an antioxidant of interest to inhibit the oxidation of linoleic acid. Used in this test was reagent-grade linoleic acid that comprised linoleic acid 85% and linolenic acid 15%.
POE-POP vitamin E prepared in Example 1, 2 or 3 was added in an amount of 0.5% to linoleic acid while vitamin E, vitamin E acetate, POE (12EO) vitamin E, POE (24 EO)-cholesterol, POE (20 EO) sorbitan monostearate, and POE (12 EO) nonylphenylether were also used as references. These samples were stored in an incubator maintained at 40° C. After two and ten days of incubation, a peroxide value was determined for each sample. In detail, in 1.0 g of each sample was placed in a 250 ml Erlenmeyer flask and dissolved with 10 ml of chloroform. To the solution, 15 ml of glacial acetic acid and 1 ml of saturated potassium iodide solution were added, and a stopper was put in the flask. After being vigorously shaken, the flask was allowed to stand in a dark place for 5 min. Thereafter, the flask was added with 75 ml of distilled water and vigorously shaken. Free iodine was titrated with a 0.01 N sodium thiosulfate solution, using a starch solution as an indicator. The point at which the solution became colorless was regarded as the end point. The peroxide value was calculated as follows:
[formula] wherein, S: Amount of 0.01 N sodium thiosulfate solution consumed by sample (ml) B: Amount of 0.01 N sodium thiosulfate solution consumed in blank test tube (ml) F: Factor of 0.01 N sodium thiosulfate solution

Compound	Peroxide Values (Day 2)	Peroxide Values (Day 10)
CC(=O)Oc1c(C)c(C)c2c(c1C)CCC(C)(CCC[C@H](C)CCC[C@H](C)CCCC(C)C)O2 (stereo partly shown) [Vitamin E acetate]	26.2	122.3
Vitamin E	21.6	58.9
